Reference: the NIST ThermoML archive (doi:10.1021/je9000608)
± gives the expanded uncertainty stated by the source. One block for each molecule: values may come before it.

Key:
[1] = refractive index (Na D-line) (dimensionless); conditions: 101.33 kPa, Liquid, Standard Abbe refractometry
[2] = Liquid; for mass density: 101.33 kPa, Pycnometric method; for vapor or sublimation pressure: Ebulliometric method (Recirculating still)

Compound: ClC(Cl)C(Cl)Cl [1,1,2,2-tetrachloroethane]
refractive index ([1]; 293.15 K): 1.494 ± 0.0008
mass density ([2]; 293.15 K): 1593 ± 1.8 kg/m3
vapor or sublimation pressure ([2]; 417.25 K): 95.6 ± 1 kPa

refractive index ([1]; 293.15 K): 1.4196 ± 0.0008
mass density ([2]; 293.15 K): 1252.9 ± 1.3 kg/m3
vapor or sublimation pressure ([2]; 355.15 K): 95.6 ± 1 kPa
Compound: ClCCCl [1,2-dichloroethane]

refractive index ([1]; 298.15 K): 1.4157 ± 0.0008
mass density ([2]; 298.15 K): 815.3 ± 0.8 kg/m3
vapor or sublimation pressure ([2]; 428.45 K): 95.6 ± 1 kPa
Compound: CCCCCCO [hexan-1-ol]

Compound: ClC(Cl)=C(Cl)Cl [tetrachloroethene]
refractive index ([1]; 293.15 K): 1.5058 ± 0.0008
mass density ([2]; 293.15 K): 1623 ± 1.8 kg/m3
vapor or sublimation pressure ([2]; 392.15 K): 95.6 ± 1 kPa

Compound: ClC=C(Cl)Cl [trichloroethene]
refractive index ([1]; 303.15 K): 1.475 ± 0.0008
mass density ([2]; 303.15 K): 1451.3 ± 1.6 kg/m3
vapor or sublimation pressure ([2]; 358.45 K): 95.6 ± 1 kPa
